Experiments:
[1] = system: Chinese leaves; test: Container experiment with Chinese leaves: growth (fresh-matter yield); type: in vivo, Chinese leaves "Kasumi"
Experimental: (§1) Experimental Set-Up: Container Experiment With Chinese Leaves • 1. without addition • 2. 8 mg S/pot/week • 3. 80 mg S/pot/week • 4. 2 mg sodium lignosulfonate/pot/week • 5. 20 mg sodium lignosulfonate/pot/week • 6. 10 mg mixture of 80% by weight sulfur and 20% by weight sodium lignosulfonate/pot/week • 7. 100 mg mixture of 80% by weight sulfur and 20% by weight sodium lignosulfonate/pot/week Method: Plant Species: Chinese leaves “Kasumi”, sown into P-soil in multi-cell trays, age at pricking out time into experimental containers: approx. 14 days; the same containers are planted twice. Soil from Ruchheim, loam, pH 7.4, mixed with quartz sand (for retaining the structural stability during the container experiment). PE pots/15, approx. 1 l substrate (1.5 kg). Greenhouse, 25° C., supplementary lighting suitable for assimilation. Plant food 15+10+15+2 with trace elements without chelating agent (LAB 2411D; 0.5 g/container/week). Using a syringe and cannula into the soil at a depth of approx. 1 cm to simulate trickle irrigation conditions. The additions were applied in one application weekly via the cannula. 10 mg of mixture M according to the invention/container/week correspond to approx. 5 kg/ha.

[2] = system: Chinese leaves; test: Container experiment with Chinese leaves: mineral contents in leaves; type: in vivo, Chinese leaves "Kasumi"; details: plant batch 1; for Iron content in ppm / Manganese content in ppm: Table 3
Experimental: as §1

[3] = plant batch 1, S 8 mg, lignosulfonate 2 mg, mixture M 10 mg per pot/week
[4] = plant batch 1, S 80 mg, lignosulfonate 20 mg, mixture M 100 mg per pot/week
[5] = plant batch 2, S 8 mg, lignosulfonate 2 mg, mixture M 10 mg per pot/week
[6] = plant batch 2, S 80 mg, lignosulfonate 20 mg, mixture M 100 mg per pot/week
[7] = S 8 mg, lignosulfonate 2 mg, mixture M 10 mg
[8] = S 80 mg, lignosulfonate 20 mg, mixture M 100 mg

## S1SSSSSSS1 [Sulfur, sulfur]
[1]; increasing additions, in particular in the first batch of plants
  Effect on growth (in words): no growth-promoting effect
[1]; [3]
  Fresh-matter yield: 106 g/container
  Fresh-matter yield % of untreated: 97 % of untreated
[1]; [4]
  Fresh-matter yield: 108 g/container
  Fresh-matter yield % of untreated: 99 % of untreated
[1]; [5]
  Fresh-matter yield: 67 g/container
  Fresh-matter yield % of untreated: 96 % of untreated
[1]; [6]
  Fresh-matter yield: 68 g/container
  Fresh-matter yield % of untreated: 97 % of untreated
[2]; [7]
  Iron content in ppm: 140 ppm
  Manganese content in ppm: 66 ppm
  Fe content in leaves: 140 ppm in DM
  Iron content in % of untreated: 127 % of untreated
  K content in leaves: 5.23 % in DM
  Manganese content in % of untreated: 101 % of untreated
  Mg content in leaves: 0.24 % in DM
  Mn content in leaves: 66 ppm in DM
  N content in leaves: 3.57 % in DM
  P content in leaves: 0.46 % in DM
[2]; [8]
  Iron content in ppm: 174 ppm
  Manganese content in ppm: 67 ppm
  Fe content in leaves: 174 ppm in DM
  Iron content in % of untreated: 158 % of untreated
  K content in leaves: 5.57 % in DM
  Manganese content in % of untreated: 103 % of untreated
  Mg content in leaves: 0.25 % in DM
  Mn content in leaves: 67 ppm in DM
  N content in leaves: 3.86 % in DM
  P content in leaves: 0.50 % in DM
